Numbers after ± are expanded uncertainties.
Experiment: xn = mol fraction of the nth substance listed
Settings: Liquid; for mass density: 101.3 kPa; for viscosity: 101 kPa

Structure (SMILES): CN(C)CCO [2-(N,N-dimethylamino)ethanol] + O
- mass density (323.15 K, x1 = 0.895): 868.495 ± 1.3 kg/m3
- mass density (323.15 K, x1 = 1): 861.902 ± 1.4 kg/m3
- mass density (328.15 K, x1 = 0.0617): 972.399 ± 0.67 kg/m3
- mass density (328.15 K, x1 = 0.1009): 964.905 ± 0.72 kg/m3
- mass density (328.15 K, x1 = 0.2017): 945.194 ± 0.85 kg/m3
- mass density (328.15 K, x1 = 0.3033): 927.188 ± 0.97 kg/m3
- mass density (328.15 K, x1 = 0.4051): 911.247 ± 1.1 kg/m3
- mass density (328.15 K, x1 = 0.5077): 898.016 ± 1.2 kg/m3
- mass density (328.15 K, x1 = 0.6099): 886.733 ± 1.2 kg/m3
- mass density (328.15 K, x1 = 0.7652): 873.15 ± 1.3 kg/m3
- mass density (328.15 K, x1 = 0.895): 864.065 ± 1.4 kg/m3
- mass density (328.15 K, x1 = 1): 857.46 ± 1.4 kg/m3
- viscosity (333.15 K, x1 = 0.1009): 1.499 ± 0.022 mPa·s
- viscosity (333.15 K, x1 = 0.2017): 2.511 ± 0.037 mPa·s
- viscosity (333.15 K, x1 = 0.3033): 3.091 ± 0.044 mPa·s
- viscosity (333.15 K, x1 = 0.4051): 3.126 ± 0.045 mPa·s
- viscosity (333.15 K, x1 = 0.5077): 2.897 ± 0.042 mPa·s
- viscosity (333.15 K, x1 = 0.6099): 2.503 ± 0.037 mPa·s
- viscosity (333.15 K, x1 = 0.7652): 1.969 ± 0.03 mPa·s
- viscosity (333.15 K, x1 = 0.895): 1.641 ± 0.026 mPa·s
- viscosity (333.15 K, x1 = 1): 1.413 ± 0.021 mPa·s
- mass density (333.15 K, x1 = 0.0617): 969.09 ± 0.69 kg/m3
- mass density (333.15 K, x1 = 0.1009): 961.13 ± 0.74 kg/m3
- mass density (333.15 K, x1 = 0.2017): 940.864 ± 0.88 kg/m3
- mass density (333.15 K, x1 = 0.3033): 922.714 ± 1 kg/m3
- mass density (333.15 K, x1 = 0.4051): 906.75 ± 1.1 kg/m3
- mass density (333.15 K, x1 = 0.5077): 893.531 ± 1.2 kg/m3
- mass density (333.15 K, x1 = 0.6099): 882.262 ± 1.3 kg/m3
- mass density (333.15 K, x1 = 0.7652): 868.68 ± 1.3 kg/m3
- mass density (333.15 K, x1 = 0.895): 859.595 ± 1.4 kg/m3
- mass density (333.15 K, x1 = 1): 852.965 ± 1.4 kg/m3
- mass density (338.15 K, x1 = 0.0617): 965.663 ± 0.71 kg/m3
- mass density (338.15 K, x1 = 0.1009): 957.253 ± 0.77 kg/m3
- mass density (338.15 K, x1 = 0.2017): 936.472 ± 0.91 kg/m3
- mass density (338.15 K, x1 = 0.3033): 918.174 ± 1 kg/m3
- mass density (338.15 K, x1 = 0.4051): 902.184 ± 1.1 kg/m3
- mass density (338.15 K, x1 = 0.5077): 888.98 ± 1.2 kg/m3
- mass density (338.15 K, x1 = 0.6099): 877.726 ± 1.3 kg/m3
- mass density (338.15 K, x1 = 0.7652): 864.16 ± 1.4 kg/m3
- mass density (338.15 K, x1 = 0.895): 855.072 ± 1.4 kg/m3
- mass density (338.15 K, x1 = 1): 848.423 ± 1.5 kg/m3
- viscosity (343.15 K, x1 = 0.1009): 1.186 ± 0.018 mPa·s
- viscosity (343.15 K, x1 = 0.2017): 1.896 ± 0.028 mPa·s
- viscosity (343.15 K, x1 = 0.3033): 2.27 ± 0.033 mPa·s
- viscosity (343.15 K, x1 = 0.4051): 2.302 ± 0.033 mPa·s
- viscosity (343.15 K, x1 = 0.5077): 2.152 ± 0.031 mPa·s
- viscosity (343.15 K, x1 = 0.6099): 1.909 ± 0.028 mPa·s
- viscosity (343.15 K, x1 = 0.7652): 1.551 ± 0.024 mPa·s
- viscosity (343.15 K, x1 = 0.895): 1.317 ± 0.021 mPa·s
- viscosity (343.15 K, x1 = 1): 1.156 ± 0.017 mPa·s
- mass density (343.15 K, x1 = 0.0617): 961.835 ± 0.74 kg/m3
- mass density (343.15 K, x1 = 0.1009): 953.308 ± 0.8 kg/m3
- mass density (343.15 K, x1 = 0.2017): 932.014 ± 0.94 kg/m3
- mass density (343.15 K, x1 = 0.3033): 913.564 ± 1.1 kg/m3
- mass density (343.15 K, x1 = 0.4051): 897.541 ± 1.2 kg/m3
- mass density (343.15 K, x1 = 0.5077): 884.364 ± 1.2 kg/m3
- mass density (343.15 K, x1 = 0.6099): 873.127 ± 1.3 kg/m3
- mass density (343.15 K, x1 = 0.7652): 859.582 ± 1.4 kg/m3
- mass density (343.15 K, x1 = 0.895): 850.491 ± 1.5 kg/m3
- mass density (343.15 K, x1 = 1): 843.844 ± 1.5 kg/m3
- mass density (348.15 K, x1 = 0.0617): 957.228 ± 0.77 kg/m3
- mass density (348.15 K, x1 = 0.1009): 949.273 ± 0.82 kg/m3
- mass density (348.15 K, x1 = 0.2017): 927.488 ± 0.97 kg/m3
- mass density (348.15 K, x1 = 0.3033): 908.868 ± 1.1 kg/m3
- mass density (348.15 K, x1 = 0.4051): 892.846 ± 1.2 kg/m3
- mass density (348.15 K, x1 = 0.5077): 879.677 ± 1.3 kg/m3
- mass density (348.15 K, x1 = 0.6099): 868.45 ± 1.3 kg/m3
- mass density (348.15 K, x1 = 0.7652): 854.939 ± 1.4 kg/m3
- mass density (348.15 K, x1 = 0.895): 845.858 ± 1.5 kg/m3
- mass density (348.15 K, x1 = 1): 839.205 ± 1.5 kg/m3
- viscosity (353.15 K, x1 = 0.1009): 0.966 ± 0.015 mPa·s
- viscosity (353.15 K, x1 = 0.2017): 1.47 ± 0.022 mPa·s
- viscosity (353.15 K, x1 = 0.3033): 1.724 ± 0.025 mPa·s
- viscosity (353.15 K, x1 = 0.4051): 1.75 ± 0.026 mPa·s
- viscosity (353.15 K, x1 = 0.5077): 1.65 ± 0.024 mPa·s
- viscosity (353.15 K, x1 = 0.6099): 1.493 ± 0.022 mPa·s
- viscosity (353.15 K, x1 = 0.7652): 1.247 ± 0.019 mPa·s
- viscosity (353.15 K, x1 = 0.895): 1.078 ± 0.017 mPa·s
- viscosity (353.15 K, x1 = 1): 0.963 ± 0.015 mPa·s
- mass density (353.15 K, x1 = 0.0617): 952.666 ± 0.8 kg/m3
- mass density (353.15 K, x1 = 0.1009): 945.149 ± 0.85 kg/m3
- mass density (353.15 K, x1 = 0.2017): 922.889 ± 1 kg/m3
- mass density (353.15 K, x1 = 0.3033): 904.132 ± 1.1 kg/m3
- mass density (353.15 K, x1 = 0.4051): 888.074 ± 1.2 kg/m3
- mass density (353.15 K, x1 = 0.5077): 874.926 ± 1.3 kg/m3
- mass density (353.15 K, x1 = 0.6099): 863.729 ± 1.4 kg/m3
- mass density (353.15 K, x1 = 0.7652): 850.236 ± 1.5 kg/m3
- mass density (353.15 K, x1 = 0.895): 841.163 ± 1.5 kg/m3
- mass density (353.15 K, x1 = 1): 834.521 ± 1.5 kg/m3
- mass density (358.15 K, x1 = 0.0617): 950.878 ± 0.81 kg/m3
- mass density (358.15 K, x1 = 0.1009): 940.935 ± 0.88 kg/m3
- mass density (358.15 K, x1 = 0.2017): 918.216 ± 1 kg/m3
- mass density (358.15 K, x1 = 0.3033): 899.314 ± 1.2 kg/m3
- mass density (358.15 K, x1 = 0.4051): 883.233 ± 1.3 kg/m3
- mass density (358.15 K, x1 = 0.5077): 870.101 ± 1.3 kg/m3
- mass density (358.15 K, x1 = 0.6099): 858.928 ± 1.4 kg/m3
- mass density (358.15 K, x1 = 0.7652): 845.484 ± 1.5 kg/m3
- mass density (358.15 K, x1 = 0.895): 836.414 ± 1.5 kg/m3
- mass density (358.15 K, x1 = 1): 829.779 ± 1.6 kg/m3
- mass density (363.15 K, x1 = 0.0617): 946.398 ± 0.84 kg/m3
- mass density (363.15 K, x1 = 0.1009): 936.638 ± 0.9 kg/m3
- mass density (363.15 K, x1 = 0.2017): 913.472 ± 1.1 kg/m3
- mass density (363.15 K, x1 = 0.3033): 894.425 ± 1.2 kg/m3
- mass density (363.15 K, x1 = 0.4051): 878.314 ± 1.3 kg/m3
- mass density (363.15 K, x1 = 0.5077): 865.197 ± 1.4 kg/m3
- mass density (363.15 K, x1 = 0.6099): 854.052 ± 1.4 kg/m3
- mass density (363.15 K, x1 = 0.7652): 840.646 ± 1.5 kg/m3
- mass density (363.15 K, x1 = 0.895): 831.596 ± 1.6 kg/m3
- mass density (363.15 K, x1 = 1): 824.969 ± 1.6 kg/m3
